Test results: BigSolDB 2.1

CCC(C)n1ncn(-c2ccc(N3CCN(c4ccc(OC[C@H]5CO[C@](Cn6cncn6)(c6ccc(Cl)cc6Cl)O5)cc4)CC3)cc2)c1=O (mixture of isomers)
solubility (mole fraction)
Conditions	283.15 K	288.15 K	293.15 K	298.15 K	303.15 K	308.15 K	313.15 K	318.15 K	323.15 K
in DMSO	0.000184	0.000237	0.000309	0.000391	0.000469	0.000579	0.000707	0.000888	0.00107
in ethanol	6.88e-06	9.34e-06	1.26e-05	1.66e-05	2.16e-05	2.83e-05	3.73e-05	5.03e-05	6.36e-05
in isopropanol	8.3e-06	1.04e-05	1.3e-05	1.57e-05	2.02e-05	2.48e-05	3.02e-05	3.65e-05	4.37e-05
in methanol	1.64e-05	2.14e-05	2.81e-05	3.7e-05	4.9e-05	6.17e-05	7.78e-05	9.7e-05	0.00012
in water	4.17e-09	6.55e-09	1.03e-08	1.55e-08	2.6e-08	3.69e-08	5.55e-08	8.36e-08	1.21e-07
